In the experiment the target is Neurogenic locus notch homolog protein 1 (Homo sapiens, UniProt P46531). Kind of experiment: Inhibition of human Notch1 expressed in HEK293 cells coexpressing luciferase reporter measured after 20 hrs by steady-glo chemiluminescence assay.
Neurogenic locus notch homolog protein 1, sequence (P46531 whole entry): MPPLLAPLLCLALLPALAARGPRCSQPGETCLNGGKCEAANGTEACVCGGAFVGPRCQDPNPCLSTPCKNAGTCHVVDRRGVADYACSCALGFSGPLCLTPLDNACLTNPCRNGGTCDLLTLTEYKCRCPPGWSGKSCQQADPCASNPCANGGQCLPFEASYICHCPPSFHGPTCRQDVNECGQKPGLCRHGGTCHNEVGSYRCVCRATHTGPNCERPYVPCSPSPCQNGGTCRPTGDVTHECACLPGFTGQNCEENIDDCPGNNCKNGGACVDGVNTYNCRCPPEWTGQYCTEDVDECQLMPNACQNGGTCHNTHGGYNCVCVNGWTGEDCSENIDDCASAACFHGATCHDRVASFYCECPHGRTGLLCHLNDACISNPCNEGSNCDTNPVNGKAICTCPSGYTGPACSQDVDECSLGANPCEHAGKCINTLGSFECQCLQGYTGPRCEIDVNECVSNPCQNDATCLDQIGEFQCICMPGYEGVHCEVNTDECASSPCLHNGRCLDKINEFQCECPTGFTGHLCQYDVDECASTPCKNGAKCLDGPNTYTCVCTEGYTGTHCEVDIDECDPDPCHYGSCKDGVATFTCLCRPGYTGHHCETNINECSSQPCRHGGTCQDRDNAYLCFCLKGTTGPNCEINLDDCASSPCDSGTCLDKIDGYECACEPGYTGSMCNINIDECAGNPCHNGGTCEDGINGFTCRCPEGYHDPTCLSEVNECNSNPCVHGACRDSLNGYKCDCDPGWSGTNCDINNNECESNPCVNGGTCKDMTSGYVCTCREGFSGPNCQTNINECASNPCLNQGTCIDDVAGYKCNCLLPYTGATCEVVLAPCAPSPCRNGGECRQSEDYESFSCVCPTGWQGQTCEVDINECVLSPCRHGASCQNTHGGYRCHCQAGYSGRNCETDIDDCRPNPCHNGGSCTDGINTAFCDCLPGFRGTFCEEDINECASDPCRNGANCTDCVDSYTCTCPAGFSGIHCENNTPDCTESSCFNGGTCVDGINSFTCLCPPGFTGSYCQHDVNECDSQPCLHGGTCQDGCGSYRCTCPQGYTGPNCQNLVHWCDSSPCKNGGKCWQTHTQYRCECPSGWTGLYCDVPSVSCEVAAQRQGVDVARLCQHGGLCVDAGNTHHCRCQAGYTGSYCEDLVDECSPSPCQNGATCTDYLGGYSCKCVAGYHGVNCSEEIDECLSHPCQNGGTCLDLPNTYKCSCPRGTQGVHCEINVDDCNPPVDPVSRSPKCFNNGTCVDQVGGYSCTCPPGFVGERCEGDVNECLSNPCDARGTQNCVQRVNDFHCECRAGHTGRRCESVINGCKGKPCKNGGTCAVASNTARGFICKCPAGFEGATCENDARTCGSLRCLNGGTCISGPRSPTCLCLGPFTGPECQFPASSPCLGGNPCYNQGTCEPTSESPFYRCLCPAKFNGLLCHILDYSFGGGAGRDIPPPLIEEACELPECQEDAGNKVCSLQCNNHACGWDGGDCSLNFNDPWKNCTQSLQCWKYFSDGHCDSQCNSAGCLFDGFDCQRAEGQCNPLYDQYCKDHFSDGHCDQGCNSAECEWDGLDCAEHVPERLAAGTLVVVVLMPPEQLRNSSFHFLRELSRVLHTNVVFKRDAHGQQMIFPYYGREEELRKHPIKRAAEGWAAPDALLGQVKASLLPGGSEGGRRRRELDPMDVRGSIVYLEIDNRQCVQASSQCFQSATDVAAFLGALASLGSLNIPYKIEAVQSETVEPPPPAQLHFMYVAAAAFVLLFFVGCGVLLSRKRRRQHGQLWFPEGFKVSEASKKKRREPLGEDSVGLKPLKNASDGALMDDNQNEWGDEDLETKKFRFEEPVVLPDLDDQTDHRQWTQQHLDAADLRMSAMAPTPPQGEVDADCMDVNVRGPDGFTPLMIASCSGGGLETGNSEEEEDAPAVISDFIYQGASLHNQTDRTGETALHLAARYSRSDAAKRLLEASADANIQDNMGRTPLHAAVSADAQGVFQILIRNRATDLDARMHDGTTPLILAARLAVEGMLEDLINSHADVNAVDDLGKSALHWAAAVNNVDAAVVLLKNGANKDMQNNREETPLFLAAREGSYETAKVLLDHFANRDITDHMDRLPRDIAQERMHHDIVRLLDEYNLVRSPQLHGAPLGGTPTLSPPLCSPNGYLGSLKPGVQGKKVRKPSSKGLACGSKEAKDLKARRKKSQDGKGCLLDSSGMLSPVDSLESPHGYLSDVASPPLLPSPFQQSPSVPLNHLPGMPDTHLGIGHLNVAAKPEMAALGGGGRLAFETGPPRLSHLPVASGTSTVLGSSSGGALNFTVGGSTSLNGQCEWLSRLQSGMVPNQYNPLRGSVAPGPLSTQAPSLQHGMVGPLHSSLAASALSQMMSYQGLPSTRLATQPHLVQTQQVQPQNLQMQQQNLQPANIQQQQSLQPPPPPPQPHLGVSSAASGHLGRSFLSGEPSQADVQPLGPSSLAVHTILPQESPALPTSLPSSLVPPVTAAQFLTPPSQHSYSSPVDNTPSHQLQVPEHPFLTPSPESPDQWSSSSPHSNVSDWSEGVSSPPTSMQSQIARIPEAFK

The IC50 is the midpoint of a concentration-inhibition curve. Take `Cc1noc(N2C[C@H]3CC[C@@H](C2)[C@@H]3Nc2nc3c(OCC(F)(F)F)ccc(C(F)(F)F)n3n2)n1`: the IC50 is above 10 µM.

`Cc1cc(N2C[C@H]3CC[C@@H](C2)[C@@H]3Nc2nc3c(OCC(F)F)ccc(C(F)(F)F)n3n2)ncn1` displayed an IC50 above 10 µM. For `Cc1nnc(N2C[C@H]3CC[C@@H](C2)[C@@H]3Nc2nc3c(O[C@@H](C)C(F)(F)F)ccc(C(F)(F)F)n3n2)o1` the value was above 10 µM.

Source of the values: BindingDB's records for doi:10.1021/acs.jmedchem.0c00909 (F. Hoffmann-La Roche, 2020).
